Reference: patent US20230085307A1, “PYRIDAZINONE COMPOUND AND HERBICIDE” (NISSAN CHEMICAL CORPORATION, priority 2019, published 2023)

What was measured:
blackgrass [1] = assay: Test Example 4: herbicidal effect by soil treatment (Table 19, symbol J); format: in vivo, blackgrass (Alopecurus myosuroides); details: amount of applied herbicide 320 g/ha
Method in brief: (§1)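 Soil-surface application: an emulsion agent diluted with water to the predetermined dose is sprayed uniformly over seeds lying under roughly 1.5 cm of sterilized diluvial soil. Boxes stay in a greenhouse at 25° C. to 30° C. Three weeks later, each species is graded on previously defined criteria.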

southern crabgrass [2] = assay: Test Example 4: herbicidal effect by soil treatment (Table 19, symbol F); format: in vivo, southern crabgrass (Digitaria ciliaris); details: amount of applied herbicide 320 g/ha
Method in brief: as §1

barnyard grass [3] = assay: Test Example 4: herbicidal effect by soil treatment (Table 19, symbol H); format: in vivo, barnyard grass (Echinochloa crus-galli); details: amount of applied herbicide 320 g/ha
Method in brief: as §1

barnyard grass [4] = assay: Test Example 5: herbicidal effect by foliage application, plastic box (Table 20, symbol H); format: in vivo, barnyard grass (Echinochloa crus-galli); details: foliage application, 320 g/ha, three weeks after application
Method in brief: (§2)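 Sow seeds spot-wise in sterilized diluvial soil; cover with ~1.5 cm soil. Grow 14 days in greenhouse, 25° C. to 30° C. Spray foliage with emulsion diluted to predetermined amount. Rate effect after 3 weeks.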

green foxtail [5] = assay: Test Example 4: herbicidal effect by soil treatment (Table 19, symbol G); format: in vivo, green foxtail (Setaria viridis); details: amount of applied herbicide 320 g/ha
Method in brief: as §1

lambsquarters [6] = assay: Test Example 5: herbicidal effect by foliage application, plastic box (Table 20, symbol O); format: in vivo, lambsquarters (Chenopodium album); details: foliage application, 320 g/ha, three weeks after application
Method in brief: as §2

southern crabgrass [7] = assay: Test Example 5: herbicidal effect by foliage application, plastic box (Table 20, symbol F); format: in vivo, southern crabgrass (Digitaria ciliaris); details: foliage application, 320 g/ha, three weeks after application
Method in brief: as §2

windgrass [8] = assay: Test Example 4: herbicidal effect by soil treatment (Table 19, symbol L); format: in vivo, windgrass (Apera spica-venti); details: amount of applied herbicide 320 g/ha
Method in brief: as §1

green foxtail [9] = assay: Test Example 5: herbicidal effect by foliage application, plastic box (Table 20, symbol G); format: in vivo, green foxtail (Setaria viridis); details: foliage application, 320 g/ha, three weeks after application
Method in brief: as §2

blackgrass [10] = assay: Test Example 5: herbicidal effect by foliage application, plastic box (Table 20, symbol J); format: in vivo, blackgrass (Alopecurus myosuroides); details: foliage application, 320 g/ha, three weeks after application
Method in brief: as §2

Italian ryegrass [11] = assay: Test Example 4: herbicidal effect by soil treatment (Table 19, symbol K); format: in vivo, Italian ryegrass (Lolium multiflorum); details: amount of applied herbicide 320 g/ha
Method in brief: as §1

barnyard grass [12] = assay: Test Example 3: herbicidal effect by foliage application, Wagner pot (Table 18, symbol H); format: in vivo, barnyard grass (Echinochloa crus-galli)
Method in brief: (§3)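 Plants were sown in alluvial soil held under 0.1–0.5 cm standing water and grown 14 days in a greenhouse at 25–30 °C. An emulsifiable formulation, water-diluted to the set dose, was then sprayed onto the foliage, and effects were scored three weeks later using previously defined criteria.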

lambsquarters [13] = assay: Test Example 4: herbicidal effect by soil treatment (Table 19, symbol O); format: in vivo, lambsquarters (Chenopodium album); details: amount of applied herbicide 320 g/ha
Method in brief: as §1

Italian ryegrass [14] = assay: Test Example 5: herbicidal effect by foliage application, plastic box (Table 20, symbol K); format: in vivo, Italian ryegrass (Lolium multiflorum); details: foliage application, 320 g/ha, three weeks after application
Method in brief: as §2

wild oat [15] = assay: Test Example 5: herbicidal effect by foliage application, plastic box (Table 20, symbol I); format: in vivo, wild oat (Avena fatua); details: foliage application, 320 g/ha, three weeks after application
Method in brief: as §2

rice flat sedge = assay: Test Example 3: herbicidal effect by foliage application, Wagner pot (Table 18, symbol E); format: in vivo, rice flat sedge (Cyperus iria)
Method in brief: as §3

velvetleaf [16] = assay: Test Example 4: herbicidal effect by soil treatment (Table 19, symbol M); format: in vivo, velvetleaf (Abutilon theophrasti); details: amount of applied herbicide 320 g/ha
Method in brief: as §1

redroot pigweed = assay: Test Example 4: herbicidal effect by soil treatment (Table 19, symbol N); format: in vivo, redroot pigweed (Amaranthus retroflexus); details: amount of applied herbicide 320 g/ha
Method in brief: as §1

false cleavers [17] = assay: Test Example 5: herbicidal effect by foliage application, plastic box (Table 20, symbol Q); format: in vivo, false cleavers (Galium spurium); details: foliage application, 320 g/ha, three weeks after application
Method in brief: as §2

Chinese sprangletop = assay: Test Example 3: herbicidal effect by foliage application, Wagner pot (Table 18, symbol D); format: in vivo, chinese sprangletop (Leptochloa chinensis)
Method in brief: as §3

wild oat [18] = assay: Test Example 4: herbicidal effect by soil treatment (Table 19, symbol I); format: in vivo, wild oat (Avena fatua); details: amount of applied herbicide 320 g/ha
Method in brief: as §1

persian speedwell [19] = assay: Test Example 4: herbicidal effect by soil treatment (Table 19, symbol R); format: in vivo, Persian speedwell (Veronica persica); details: amount of applied herbicide 320 g/ha
Method in brief: as §1

windgrass [20] = assay: Test Example 5: herbicidal effect by foliage application, plastic box (Table 20, symbol L); format: in vivo, windgrass (Apera spica-venti); details: foliage application, 320 g/ha, three weeks after application
Method in brief: as §2

persian speedwell [21] = assay: Test Example 5: herbicidal effect by foliage application, plastic box (Table 20, symbol R); format: in vivo, Persian speedwell (Veronica persica); details: foliage application, 320 g/ha, three weeks after application
Method in brief: as §2

velvetleaf [22] = assay: Test Example 5: herbicidal effect by foliage application, plastic box (Table 20, symbol M); format: in vivo, velvetleaf (Abutilon theophrasti); details: foliage application, 320 g/ha, three weeks after application
Method in brief: as §2

chickweed = assay: Test Example 4: herbicidal effect by soil treatment (Table 19, symbol P); format: in vivo, common chickweed (Stellaria media); details: amount of applied herbicide 320 g/ha
Method in brief: as §1

false cleavers [23] = assay: Test Example 4: herbicidal effect by soil treatment (Table 19, symbol Q); format: in vivo, false cleavers (Galium spurium); details: amount of applied herbicide 320 g/ha
Method in brief: as §1

[24] = amount of applied herbicide 320 g/ha

Row | SMILES | J: blackgrass, herbicidal effect grade (blackgrass [1]) | F: southern crabgrass, herbicidal effect grade (southern crabgrass [2]) | H: barnyard grass, herbicidal effect grade (barnyard grass [3]) | herbicidal effect on barnyard grass (H) (barnyard grass [4]) | G: green foxtail, herbicidal effect grade (green foxtail [5]) | herbicidal effect on lambsquarters (O) (lambsquarters [6]) | herbicidal effect on southern crabgrass (F) (southern crabgrass [7]) | L: windgrass, herbicidal effect grade (windgrass [8]) | herbicidal effect on green foxtail (G) (green foxtail [9]) | herbicidal effect on blackgrass (J) (blackgrass [10]) | K: Italian ryegrass, herbicidal effect grade (Italian ryegrass [11]) | O: lambsquarters, herbicidal effect grade (lambsquarters [13]) | herbicidal effect on Italian ryegrass (K) (Italian ryegrass [14]) | herbicidal effect on wild oat (I) (wild oat [15]) | M: velvetleaf, herbicidal effect grade (velvetleaf [16]) | N: redroot pigweed, herbicidal effect grade (redroot pigweed) | herbicidal effect on false cleavers (Q) (false cleavers [17]) | I: wild oat, herbicidal effect grade (wild oat [18]) | R: persian speedwell, herbicidal effect grade (persian speedwell [19]) | herbicidal effect on windgrass (L) (windgrass [20]) | other results
1 | COc1cc2sc(-c3ccccc3OC)c(-c3c(O)c(C)nn(C)c3=O)c2cc1OC [5-059] | 3 (Herbicidal rate of 40% or more and less than 70%) | 0 (Herbicidal rate of 5% or less (almost no effect)) | 0 (Herbicidal rate of 5% or less (almost no effect)) | 3 (Herbicidal rate of 40% or more and less than 70%) | 0 (Herbicidal rate of 5% or less (almost no effect)) | 4 (Herbicidal rate of 70% or more and less than 90%) | 4 (Herbicidal rate of 70% or more and less than 90%) | 3 (Herbicidal rate of 40% or more and less than 70%) | 4 (Herbicidal rate of 70% or more and less than 90%) | 5 (Herbicidal rate of 90% or more (almost completely withered)) | 4 (Herbicidal rate of 70% or more and less than 90%) | 0 (Herbicidal rate of 5% or less (almost no effect)) | 4 (Herbicidal rate of 70% or more and less than 90%) | 4 (Herbicidal rate of 70% or more and less than 90%) | 0 (Herbicidal rate of 5% or less (almost no effect)) | 0 (Herbicidal rate of 5% or less (almost no effect)) | 0 (Herbicidal rate of 5% or less (almost no effect)) | 0 (Herbicidal rate of 5% or less (almost no effect)) | 0 (Herbicidal rate of 5% or less (almost no effect)) | 4 (Herbicidal rate of 70% or more and less than 90%) | herbicidal effect on barnyard grass (H) (barnyard grass [12]; 320 g/ha): 5 (Herbicidal rate of 90% or more (almost completely withered)); herbicidal effect on rice flat sedge (E) (rice flat sedge; 320 g/ha): 4 (Herbicidal rate of 70% or more and less than 90%); herbicidal effect on Chinese sprangletop (D) (Chinese sprangletop; 320 g/ha): 3 (Herbicidal rate of 40% or more and less than 70%); herbicidal effect on persian speedwell (R) (persian speedwell [21]): 4 (Herbicidal rate of 70% or more and less than 90%); herbicidal effect on velvetleaf (M) (velvetleaf [22]): 3 (Herbicidal rate of 40% or more and less than 70%); P: chickweed, herbicidal effect grade (chickweed): 0 (Herbicidal rate of 5% or less (almost no effect)); Q: false cleavers, herbicidal effect grade (false cleavers [23]): 0 (Herbicidal rate of 5% or less (almost no effect))
2 | COc1cc(F)ccc1-c1oc2ccccc2c1-c1c(O)c(C)nn(C)c1=O [8-001] | 0 (Herbicidal rate of 5% or less (almost no effect)) | 0 (Herbicidal rate of 5% or less (almost no effect)) | 0 (Herbicidal rate of 5% or less (almost no effect)) | 3 (Herbicidal rate of 40% or more and less than 70%) | 0 (Herbicidal rate of 5% or less (almost no effect)) | 3 (Herbicidal rate of 40% or more and less than 70%) | 0 (Herbicidal rate of 5% or less (almost no effect)) | 0 (Herbicidal rate of 5% or less (almost no effect)) | 3 (Herbicidal rate of 40% or more and less than 70%) | 0 (Herbicidal rate of 5% or less (almost no effect)) | 0 (Herbicidal rate of 5% or less (almost no effect)) | 0 (Herbicidal rate of 5% or less (almost no effect)) | 3 (Herbicidal rate of 40% or more and less than 70%) | 3 (Herbicidal rate of 40% or more and less than 70%) | 0 (Herbicidal rate of 5% or less (almost no effect)) | 0 (Herbicidal rate of 5% or less (almost no effect)) | 4 (Herbicidal rate of 70% or more and less than 90%) | 3 (Herbicidal rate of 40% or more and less than 70%) | 0 (Herbicidal rate of 5% or less (almost no effect)) | 5 (Herbicidal rate of 90% or more (almost completely withered)) | Herbicidal effect on H (barnyard grass), foliage application (barnyard grass [12]; [24]): 4 (Herbicidal rate of 70% or more and less than 90%); Herbicidal effect on E (rice flat sedge), foliage application (rice flat sedge; [24]): 1 (Herbicidal rate of 5% or more and less than 20%); Herbicidal effect on D (Chinese sprangletop), foliage application (Chinese sprangletop; [24]): 3 (Herbicidal rate of 40% or more and less than 70%); herbicidal effect on persian speedwell (R) (persian speedwell [21]): 4 (Herbicidal rate of 70% or more and less than 90%); herbicidal effect on velvetleaf (M) (velvetleaf [22]): 3 (Herbicidal rate of 40% or more and less than 70%); P: chickweed, herbicidal effect grade (chickweed): 0 (Herbicidal rate of 5% or less (almost no effect)); Q: false cleavers, herbicidal effect grade (false cleavers [23]): 0 (Herbicidal rate of 5% or less (almost no effect))
